Measured values as given in patent US10995363B2, “Nucleotide analogs” (ABBOTT MOLECULAR INC., priority 2013, dated 2021).

Tests used:
[1] = target: T1, Therminator II DNA polymerase (Thermococcus sp., UniProt Q56366, A485L/D141A/E143A/Y409V); assay: Ladder fragment generation with natural dNTPs and one 3′-O-propargyl-dNTP; assay type: biochemical, Thermococcus sp. 9∘N; conditions: natural dNTPs plus one 3′-O-propargyl-dNTP, KRAS template, 50 cycles
T1 construct: purchased New England BioLabs
Protocol: During the development of embodiments of the technology provided herein, experiments were conducted to assess using the nucleotide analogs of the present technology to generate nucleic acid fragments that terminate at base-specific positions. In particular, reaction mixtures were produced and tested that included both natural dNTPs and each of the 3′-O-propargyl-dNTPs individually.
To test the fragment generation by 3′-O-propargyl-dTTP, a DNA fragment generation reaction mix was prepared comprising 20 mM Tris-HCl, 10 mM (NH4)SO4, 10 mM KCl, 2 mM MnCl2, 0.1% Triton X-100, 1000 μmol dATP, 1000 μmol dCTP, 1000 μmol dGTP, 1000 μmol dTTP, 200 μmol 3′-O-propargyl-dTTP, 6.25 μmol of primer R_ke2_trP1_T_bio (SEQ ID NO: 2), and 2 units of THERMINATOR II DNA polymerase (New England BioLabs) in a 25-μl final reaction volume. A volume of 0.5 μmol of the KRAS template (SEQ ID NO: 1) was used as template. The polymerase extension reaction was performed using a temperature cycling profile comprising exposing the reaction to a temperature of 95° C. for 2 minutes followed by 50 cycles of 95° C. for 15 seconds, 55° C. for 25 seconds, and 65° C. for 35 seconds.
(§1) After the polymerase extension reaction, 1 μl of the reaction mix was used directly for nucleic acid size analysis by gel electrophoresis (e.g., using an Agilent 2100 Bioanalyzer and High Sensitivity DNA Assay Chip).
Additional polymerase extension experiments were performed using the reaction conditions described above and replacing the 3′-O-propargyl-dTTP with 3′-O-propargyl-dATP, 3′-O-propargyl-dCTP, or 3′-O-propargyl dGTP.

[2] = target: T1, Therminator II DNA polymerase; assay: Polymerase extension assay: incorporation of 3′-O-propargyl-dNTP at the 3′ end of a primer on KRAS template; assay type: biochemical, Thermococcus sp. 9∘N; conditions: 2 mM MnCl2, KRAS template, 35 cycles, size analysis by gel electrophoresis
Protocol: During the development of embodiments of the technology provided herein, experiments were conducted to assess the incorporation of 3′-O-propargyl-dNTPs into a nucleic acid by a polymerase. In particular, experiments were conducted to evaluate the accurate incorporation of 3′-O-propargyl-dNTPs into a nucleic acid and to evaluate the terminating activity of the 3′-O-propargyl-dNTPs. To assess these characteristics of the nucleotide analogs provided herein, polymerase extension assays were conducted using a template nucleic acid having a sequence from human KRAS (e.g., KRAS exon 2 and flanking intron sequences) and a complementary primer (Table 2).
To test incorporation of a 3′-O-propargyl-dTTP into a nucleic acid, a polymerase extension reaction mix was assembled comprising 20 mM Tris-HCl, 10 mM (NH4)SO4, 10 mM KCl, 2 mM MnCl2, 0.1% Triton X-100, 200 μmol 3′-O-propargyl-dTTP, 6.25 μmol of primer R_ke2_trP1_T_bio (SEQ ID NO: 2), and 2 units of Therminator II DNA polymerase (New England BioLabs) in a 25-μl final reaction volume. A volume of 0.5 μmol of the KRAS template (SEQ ID NO: 1) was used as template (Table 2). The polymerase extension reaction was performed using a temperature cycling profile comprising exposing the reaction to a temperature of 95° C. for 2 minutes followed by 35 cycles of 95° C. for 15 seconds, 55° C. for 25 seconds, and 65° C. for 35 seconds.
as §1
Additional polymerase extension experiments were performed using the reaction conditions described above and replacing the 3′-O-propargyl-dTTP and the primer R_ke2_trP1_T_bio with 3′-O-propargyl-dATP and the primer R_ke2_trP1_A bio (SEQ ID NO: 3); 3′-O-propargyl-dCTP and the primer R_ke2_trP1_C bio (SEQ ID NO: 5); and 3′-O-propargyl dGTP and the primer R_ke2_trP1_G bio (SEQ ID NO: 4).

3′-O-propargyl-dNTP = assay: Polymerase screening by nucleotide extension assay (incorporation of 3′-O-propargyl-dNTP as substrate); assay type: biochemical; set-up: key: a minus (“−”) indicates that the polymerase did not produce a detectable product incorporating the 3′-O-propargyl dNTP; a single plus (“+”) indicates that the polymerase produced a detectable product incorporating the 3′-O-propargyl dNTP; three plusses (“+++”) indicates that the polymerase produced a substantial amount of 3′-O-propargyl dNTP incorporation product
Text: For example, in some exemplary assays and/or embodiments, compatible polymerases are identified by a polymerase extension reaction (e.g., a single base extension reaction). See, e.g., Ausebel et al. (eds.), Current Protocols in Molecular Biology. New York: John Wiley & Sons, Inc; Sambrook et al. (1989). Molecular Cloning: A Laboratory Manual. (2nd ed.). Cold Spring Harbor: Cold Spring Harbor Laboratory Press.
For example, identifying compatible polymerases comprises providing a polymerase to test and a reaction buffer appropriate for the polymerase. For polymerases obtained from a commercial supplier (e.g., New England BioLabs, United States Biologicals, Promega, Invitrogen, Worthington, Sigma-Aldrich, Fluka, Finnzymes, Roche, 5 Prime, Qiagen, KAPA Biosystems, Thermo Scientific, Agilent, Life Technologies, etc.), the polymerase is often supplied with an appropriate reaction buffer. An exemplary reaction buffer comprises, e.g., a compatible buffer (e.g., 20 mM Tris-HCl), a salt (e.g., 10 mM KCl), a source of magnesium or manganese (e.g., 2 mM MgSO4; 2 mM MnCl2, etc.), a detergent (e.g., 0.1% TRITON X-100) and has a suitable pH (e.g., approximately pH 8.8 at approximately 25° C.). The activities of some polymerases are improved in the presence of other compounds, such as sulfate and other salts (e.g., 10 mM (NH4)2SO4). Reaction mixtures for polymerase extension reactions are typically tested using Mg^2+ or Mn^2+ as the enzyme cofactor.
Polymerases are tested by providing in the reaction mixture a DNA template, a DNA primer that is complementary to the DNA template, and one or more nucleotides and/or nucleotide analogs. Typical concentrations of template and primer are approximately from 1 to 100 nM and typical concentrations of nucleotides and/or nucleotide analogs are approximately from 1 to 125 μM (e.g., 1 to 125 μM for each nucleotide and/or nucleotide analog and/or 1 to 500 μM total concentration of all nucleotides and/or nucleotide analogs). Templates and primers are synthesized by methods known in the art (e.g., using solid supports and phosphoramidite chemistry) and are available from several commercial suppliers (e.g., Integrated DNA Technologies, Coralville, Iowa).
A pre-annealed primer/template is typically produced for testing polymerases. For example, the primer is typically resuspended in a suitable buffer (e.g., Tris-EDTA, pH 8.0) at a suitable concentration, e.g., at 1 to 500 μM (e.g., at 100 μM) and the template is typically resuspended in a suitable buffer (e.g., Tris-EDTA, pH 8.0) at a suitable concentration, e.g., at 1 to 500 μM (e.g., at 100 μM). […] For example, a pre-annealed primer/template is produced by mixing approximately 100 μl of the approximately 1 to 500 μM (e.g., at 100 μM) primer solution to approximately 100 μl of the approximately 1 to 500 μM (e.g., at 100 μM) template solution in approximately 800 μl of an annealing buffer (e.g., 200 mM Tris, 100 mM potassium chloride, and 0.1 mM EDTA, pH 8.45) to provide a milliliter of primer/template solution. One of skill in the art can scale the volumes and concentrations as appropriate for the concentrations and volumes that are appropriate for the particular analysis. Then, an aliquot (e.g., 100 μl) of the primer/template solution is heated to denature intramolecular and/or intermolecular secondary structures (e.g., by heating at approximately 85° C. to 97° C. (e.g., at approximately 95° C.), e.g., for 1 to 5 minutes (e.g., 2 minutes). Next, the aliquot is cooled to an annealing temperature (e.g., 20° C. to 60° C. (e.g., 25° C.) and incubated for 1 to 10 minutes (e.g., for approximately 5 minutes) to allow the primer and template to anneal to form a primer/template. The primer/template can be diluted in an appropriate substrate dilution buffer (e.g., 20 mM Tris, 10 mM potassium chloride, and 0.01 mM EDTA, pH 8.45; e.g., a 1 to 10 dilution of the annealing buffer described above) for storage. […]

T1 sequence (Q56366 whole entry D141A/E143A/Y409V/A485L, the tested form may be a part): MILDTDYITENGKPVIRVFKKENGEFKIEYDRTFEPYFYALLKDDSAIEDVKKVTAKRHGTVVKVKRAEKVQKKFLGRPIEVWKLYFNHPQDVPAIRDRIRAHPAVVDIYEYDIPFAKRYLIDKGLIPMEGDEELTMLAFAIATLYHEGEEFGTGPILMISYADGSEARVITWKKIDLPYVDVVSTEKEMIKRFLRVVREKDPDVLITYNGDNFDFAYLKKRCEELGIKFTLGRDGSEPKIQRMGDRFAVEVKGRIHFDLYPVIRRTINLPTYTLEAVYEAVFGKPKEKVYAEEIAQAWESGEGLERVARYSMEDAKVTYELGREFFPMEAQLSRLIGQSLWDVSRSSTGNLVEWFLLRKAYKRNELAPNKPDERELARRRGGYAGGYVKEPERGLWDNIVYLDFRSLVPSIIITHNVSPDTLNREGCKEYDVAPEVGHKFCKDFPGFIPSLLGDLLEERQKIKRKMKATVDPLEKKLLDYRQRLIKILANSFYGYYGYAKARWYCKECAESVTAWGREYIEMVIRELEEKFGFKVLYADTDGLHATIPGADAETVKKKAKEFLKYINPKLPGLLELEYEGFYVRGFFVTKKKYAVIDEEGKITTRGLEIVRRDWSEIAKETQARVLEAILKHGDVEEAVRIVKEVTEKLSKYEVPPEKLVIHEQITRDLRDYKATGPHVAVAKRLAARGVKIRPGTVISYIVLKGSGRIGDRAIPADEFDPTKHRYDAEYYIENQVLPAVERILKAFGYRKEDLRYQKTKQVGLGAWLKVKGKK

| product incorporating the 3′-O-propargyl dNTP (3′-O-propargyl-dNTP; co-factor Mg^2+) | product incorporating the 3′-O-propargyl dNTP (3′-O-propargyl-dNTP; co-factor Mn^2+) | Molecule | generation of nucleic acid fragments terminated at base-specific positions [1] | incorporation at the 3′ end of the primer [2] |
| --- | --- | --- | --- | --- |
|  |  | C#CCO[C@H]1C[C@H](n2cnc3c(N)ncnc32)O[C@@H]1COP(=O)(O)OP(=O)(O)OP(=O)(O)O [3′-O-propargyl-dATP, 3′-O-propargyl-2′-deoxyadenosine-5′-triphosphate] | generated populations of nucleic acid fragments having a range of sizes corresponding to the expected lengths | successful incorporation |
|  |  | C#CCO[C@H]1C[C@H](n2ccc(N)nc2=O)O[C@@H]1COP(=O)(O)OP(=O)(O)OP(=O)(O)O [3′-O-propargyl-dCTP, 3′-O-propargyl-2′-deoxycytidine-5′-triphosphate] | generated populations of nucleic acid fragments having a range of sizes corresponding to the expected lengths | successful incorporation |
|  |  | C#CCO[C@H]1C[C@H](n2cnc3c(=O)[nH]c(N)nc32)O[C@@H]1COP(=O)(O)OP(=O)(O)OP(=O)(O)O [3′-O-propargyl-dGTP, 3′-O-propargyl-2′-deoxyguanosine-5′-triphosphate] | generated populations of nucleic acid fragments having a range of sizes corresponding to the expected lengths | successful incorporation |
| − | − | Amplitaq Gold: polymerase enzyme sold under the trade name Ampli-Taq (Life Technologies) |  |  |
| − | − | rTth: rTth DNA polymerase (protein, UniProt P52028 1-834, looked up) DNA polymerase I, thermostable: MEAMLPLFEPKGRVLLVDGHHLAYRTFFALKGLTTSRGEPVQAVYGFAKSLLKALKEDGYKAVFVVFDAKAPSFRHEAYEAYKAGRAPTPEDFPRQLALIKELVDLLGFTRLEVPGYEADDVLATLAKKAEKEGYEVRILTADRDLYQLVSDRVAVLHPEGHLITPEWLWEKYGLRPEQWVDFRALVGDPSDNLPGVKGIGEKTALKLLKEWGSLENLLKNLDRVKPENVREKIKAHLEDLRLSLELSRVRTDLPLEVDLAQGREPDREGLRAFLERLEFGSLLHEFGLLEAPAPLEEAPWPPPEGAFVGFVLSRPEPMWAELKALAACRDGRVHRAADPLAGLKDLKEVRGLLAKDLAVLASREGLDLVPGDDPMLLAYLLDPSNTTPEGVARRYGGEWTEDAAHRALLSERLHRNLLKRLEGEEKLLWLYHEVEKPLSRVLAHMEATGVRLDVAYLQALSLELAEEIRRLEEEVFRLAGHPFNLNSRDQLERVLFDELRLPALGKTQKTGKRSTSAAVLEALREAHPIVEKILQHRELTKLKNTYVDPLPSLVHPRTGRLHTRFNQTATATGRLSSSDPNLQNIPVRTPLGQRIRRAFVAEAGWALVALDYSQIELRVLAHLSGDENLIRVFQEGKDIHTQTASWMFGVPPEAVDPLMRRAAKTVNFGVLYGMSAHRLSQELAIPYEEAVAFIERYFQSFPKVRAWIEKTLEEGRKRGYVETLFGRRRYVPDLNARVKSVREAAERMAFNMPVQGTAADLMKLAMVKLFPRLREMGARMLLQVHDELLLEAPQARAEEVAALAKEAMEKAYPLAVPLEVEVGMGEDWLSAKG |  |  |
| − | + | 9° N: 9∘N DNA Polymerase (NEB) (protein, UniProt Q56366 1-775, looked up) DNA polymerase: MILDTDYITENGKPVIRVFKKENGEFKIEYDRTFEPYFYALLKDDSAIEDVKKVTAKRHGTVVKVKRAEKVQKKFLGRPIEVWKLYFNHPQDVPAIRDRIRAHPAVVDIYEYDIPFAKRYLIDKGLIPMEGDEELTMLAFDIETLYHEGEEFGTGPILMISYADGSEARVITWKKIDLPYVDVVSTEKEMIKRFLRVVREKDPDVLITYNGDNFDFAYLKKRCEELGIKFTLGRDGSEPKIQRMGDRFAVEVKGRIHFDLYPVIRRTINLPTYTLEAVYEAVFGKPKEKVYAEEIAQAWESGEGLERVARYSMEDAKVTYELGREFFPMEAQLSRLIGQSLWDVSRSSTGNLVEWFLLRKAYKRNELAPNKPDERELARRRGGYAGGYVKEPERGLWDNIVYLDFRSLYPSIIITHNVSPDTLNREGCKEYDVAPEVGHKFCKDFPGFIPSLLGDLLEERQKIKRKMKATVDPLEKKLLDYRQRAIKILANSFYGYYGYAKARWYCKECAESVTAWGREYIEMVIRELEEKFGFKVLYADTDGLHATIPGADAETVKKKAKEFLKYINPKLPGLLELEYEGFYVRGFFVTKKKYAVIDEEGKITTRGLEIVRRDWSEIAKETQARVLEAILKHGDVEEAVRIVKEVTEKLSKYEVPPEKLVIHEQITRDLRDYKATGPHVAVAKRLAARGVKIRPGTVISYIVLKGSGRIGDRAIPADEFDPTKHRYDAEYYIENQVLPAVERILKAFGYRKEDLRYQKTKQVGLGAWLKVKGKK |  |  |
